Experimental findings from PubChem BioAssay (NCI) are described below.

The structures appear in SMILES notation.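 How tested: cells in 96-well plates exposed to compound for 48 hours at five concentrations. At the GI50, growth is halved. TGI: concentration producing complete growth inhibition.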

Among the test systems are NCI/ADR-RES ovarian; DU-145 prostate; SK-OV-3 ovarian; PC-3 prostate; OVCAR-8 ovarian; M14 melanoma; OVCAR-5 ovarian; TK-10 renal; SN12C renal; MDA-N; LOX IMVI melanoma; SF-295 CNS; HCT-15 colon; HS 578T breast; MOLT-4 leukemia; BT-549 breast; HCT-116 colon; SR leukemia.
Holding throughout (experiment): NCI anticancer screen, dose series, 48 h

For the compound `O=[N+]([O-])c1ccc2nc(/C=C(\O)c3ccccc3)c(NC34CC5CC(CC(C5)C3)C4)nc2c1`, the TGI with NCI/ADR-RES ovarian, in the test with DU-145 prostate, with SK-OV-3 ovarian, in the test on PC-3 prostate, with OVCAR-8 ovarian and in the test with M14 melanoma was over 10 µM throughout. The TGI with OVCAR-5 ovarian, in the test on TK-10 renal, in the test on SN12C renal, with MDA-N, in the test on LOX IMVI melanoma and in the test with SF-295 CNS was over 10 µM in each case. The TGI with HCT-15 colon and with HS 578T breast was over 10 µM throughout.
Take `COc1ccc(OC)c2c1ccc1c(C)c3ccccc3c(C)c12`: the TGI with MOLT-4 leukemia, with DU-145 prostate, in the test on PC-3 prostate, in the test on OVCAR-8 ovarian, in the test on BT-549 breast and with M14 melanoma was over 100 µM each time. Besides, the TGI with OVCAR-5 ovarian, in the test on TK-10 renal, in the test with HCT-116 colon, in the test with SN12C renal, in the test on MDA-N and in the test with LOX IMVI melanoma was over 100 µM throughout. In addition, the TGI in the test on HCT-15 colon and in the test on SR leukemia was over 100 µM each time.
In the case of `CCOC(=O)COc1cc(-c2ccccc2)nc2cc(F)ccc12`, the TGI with MOLT-4 leukemia, in the test on NCI/ADR-RES ovarian, in the test on DU-145 prostate, with SK-OV-3 ovarian, with PC-3 prostate and in the test on OVCAR-8 ovarian was over 100 µM in each case. Besides, the TGI with BT-549 breast, with M14 melanoma, in the test on OVCAR-5 ovarian, in the test on TK-10 renal, in the test with HCT-116 colon and with SN12C renal was over 100 µM throughout. Moreover, the TGI with MDA-N, with LOX IMVI melanoma, with SF-295 CNS, in the test on HCT-15 colon and in the test with SR leukemia was over 100 µM in each case.
Turning to `CN1CCN(c2ccc3nc(-c4ccc5nc(CCCc6ccc(N(CCCl)CCCl)cc6)[nH]c5c4)[nH]c3c2)CC1`, the TGI in the test on MOLT-4 leukemia, in the test on NCI/ADR-RES ovarian, with DU-145 prostate, in the test with SK-OV-3 ovarian, with PC-3 prostate and in the test on OVCAR-8 ovarian was over 100 µM in each case. For the same compound, the TGI in the test on M14 melanoma, in the test with OVCAR-5 ovarian, in the test with TK-10 renal, in the test on HCT-116 colon, in the test on SN12C renal and with MDA-N was over 100 µM throughout. The TGI in the test with LOX IMVI melanoma, with SF-295 CNS, with HCT-15 colon, with SR leukemia and in the test on HS 578T breast was over 100 µM throughout.
Consider `O=C1/C(=C\c2cccc(Oc3ccccc3)c2)SC(c2ccccc2)N1Cc1ccccc1` (stereo not drawn), for which the TGI is 75.7 µM with MOLT-4 leukemia; 74.4 µM in the test with NCI/ADR-RES ovarian; over 100 µM with DU-145 prostate; 71.9 µM in the test on SK-OV-3 ovarian; 68.9 µM with OVCAR-8 ovarian; 89 µM in the test on BT-549 breast. For the same compound, the TGI with M14 melanoma is 66.7 µM; in the test on OVCAR-5 ovarian it was over 100 µM; in the test with TK-10 renal, 99.5 µM; with HCT-116 colon, 34 µM; in the test with SN12C renal it was over 100 µM; in the test with MDA-N, 52.3 µM. For the same compound, the TGI in the test with LOX IMVI melanoma is 32 µM; in the test on SF-295 CNS, over 100 µM; with HCT-15 colon, over 100 µM; in the test with SR leukemia, 56.8 µM; in the test on HS 578T breast it was 82.5 µM.
For the compound `c1cc2nnc1SCCSCCCSCCS2`, the TGI with MOLT-4 leukemia, in the test on NCI/ADR-RES ovarian, in the test with DU-145 prostate, with SK-OV-3 ovarian, with PC-3 prostate and with OVCAR-8 ovarian was over 100 µM each time. The TGI with M14 melanoma, in the test on OVCAR-5 ovarian, with TK-10 renal, in the test on HCT-116 colon, in the test on SN12C renal and in the test on MDA-N was over 100 µM each time. Besides, the TGI in the test with LOX IMVI melanoma, in the test on SF-295 CNS, with HCT-15 colon, in the test with SR leukemia and in the test on HS 578T breast was over 100 µM throughout.
Turning to `COc1ccc(/C=C2/C(=O)N(/C=C3\C(=O)Oc4ccccc4C3=O)C(=NC(C)=O)N2C)cc1OC`, the TGI with MOLT-4 leukemia, with NCI/ADR-RES ovarian, in the test with DU-145 prostate, in the test on SK-OV-3 ovarian, with PC-3 prostate and in the test on OVCAR-8 ovarian was over 100 µM each time. The TGI with M14 melanoma, with OVCAR-5 ovarian, in the test on TK-10 renal, with HCT-116 colon, with SN12C renal and in the test on MDA-N was over 100 µM throughout. In addition, the TGI with LOX IMVI melanoma, in the test with SF-295 CNS, in the test with HCT-15 colon, in the test on SR leukemia and with HS 578T breast was over 100 µM each time. In addition, the GI50 with TK-10 renal is over 100 µM.
Consider `O=C(Cn1c2c(c3ccccc31)CCCC2)N1CCOCC1`, for which the TGI with MOLT-4 leukemia, in the test on NCI/ADR-RES ovarian, in the test on SK-OV-3 ovarian, in the test on PC-3 prostate, in the test with OVCAR-8 ovarian and in the test on BT-549 breast was over 100 µM each time. The TGI with M14 melanoma, in the test on OVCAR-5 ovarian, in the test with TK-10 renal, with HCT-116 colon, with SN12C renal and in the test with MDA-N was over 100 µM throughout. Moreover, the TGI in the test with LOX IMVI melanoma, in the test with SF-295 CNS, in the test with HCT-15 colon and with HS 578T breast was over 100 µM throughout.
In the case of `CN(C)c1cccc2c(S(=O)(=O)NCCCNCCN)cccc12`, the TGI in the test on MOLT-4 leukemia was 41.1 µM; in the test with NCI/ADR-RES ovarian, over 100 µM; in the test with DU-145 prostate, over 100 µM; with SK-OV-3 ovarian it was over 100 µM; in the test with PC-3 prostate, over 100 µM; in the test on M14 melanoma, 33.9 µM. In addition, the TGI is over 100 µM in the test on OVCAR-5 ovarian; over 100 µM with HCT-116 colon; over 100 µM with SN12C renal; 69.6 µM with MDA-N; over 100 µM with LOX IMVI melanoma; over 100 µM in the test on SF-295 CNS. Besides, the TGI with HCT-15 colon is over 100 µM; in the test with SR leukemia, 39.1 µM; in the test with HS 578T breast it was 76.4 µM.
For `O=C1NC(=O)C23C(=O)NC(=O)C12C1C=CC3CC1` (stereo not drawn), the TGI in the test on MOLT-4 leukemia, in the test on NCI/ADR-RES ovarian, in the test on DU-145 prostate, in the test with SK-OV-3 ovarian, with PC-3 prostate and in the test with OVCAR-8 ovarian was over 10 µM in each case. Also, the TGI in the test on M14 melanoma, in the test on TK-10 renal, in the test with HCT-116 colon, with SN12C renal, in the test with MDA-N and in the test on LOX IMVI melanoma was over 10 µM in each case. Further, the TGI in the test with SF-295 CNS, in the test on HCT-15 colon, in the test with SR leukemia and with HS 578T breast was over 10 µM throughout.
Turning to `CCCCCCCCCc1cc(=O)c2c(O)cc(O)cc2o1`, the TGI in the test with MOLT-4 leukemia was found to be 22.3 µM; in the test with NCI/ADR-RES ovarian it was 35.7 µM; in the test with DU-145 prostate, 36.7 µM; in the test on SK-OV-3 ovarian it was 32.2 µM; in the test on PC-3 prostate, 32.1 µM; in the test on OVCAR-8 ovarian it was 40.2 µM. For the same compound, the TGI was 34.9 µM in the test on M14 melanoma; 32 µM with OVCAR-5 ovarian; 34.5 µM in the test with TK-10 renal; 47.6 µM in the test with HCT-116 colon; 38.9 µM with SN12C renal; over 100 µM in the test with MDA-N. Moreover, the TGI amounted to 44.7 µM in the test on LOX IMVI melanoma; 36 µM in the test with SF-295 CNS; 36 µM in the test on HCT-15 colon; 32.7 µM in the test with SR leukemia; 40.6 µM with HS 578T breast.
With `COc1ccc(-c2n[nH]c3nc4ccccc4n3c2=O)cc1`, the TGI in the test with MOLT-4 leukemia, in the test on NCI/ADR-RES ovarian, in the test on DU-145 prostate, with PC-3 prostate, with OVCAR-8 ovarian and in the test with BT-549 breast was over 100 µM in each case. In addition, the TGI in the test on M14 melanoma, with OVCAR-5 ovarian, in the test with TK-10 renal, with HCT-116 colon, in the test on SN12C renal and in the test on MDA-N was over 100 µM throughout. The TGI in the test with LOX IMVI melanoma, in the test with HCT-15 colon and with HS 578T breast was over 100 µM each time.
For `O=C1C2CCCCC2C(=O)N1n1c(Cc2ccccc2)n[nH]c1=O` (stereo not drawn), the TGI in the test on MOLT-4 leukemia, in the test with NCI/ADR-RES ovarian, in the test on SK-OV-3 ovarian, with PC-3 prostate, in the test on OVCAR-8 ovarian and with BT-549 breast was over 100 µM each time. Besides, the TGI with M14 melanoma, in the test with OVCAR-5 ovarian, in the test with TK-10 renal, with HCT-116 colon, with SN12C renal and with MDA-N was over 100 µM throughout. The TGI with LOX IMVI melanoma, in the test on SF-295 CNS, with HCT-15 colon, in the test on SR leukemia and in the test on HS 578T breast was over 100 µM each time.
Consider `COc1cccc(C=C(C#N)C#N)c1OC`, for which the TGI with MOLT-4 leukemia, in the test with NCI/ADR-RES ovarian, with DU-145 prostate, with SK-OV-3 ovarian, in the test with PC-3 prostate and in the test with OVCAR-8 ovarian was over 100 µM each time. Further, the TGI with BT-549 breast, in the test on M14 melanoma, with OVCAR-5 ovarian, in the test with TK-10 renal, in the test with HCT-116 colon and with SN12C renal was over 100 µM throughout. The TGI with MDA-N, with SF-295 CNS, in the test with HCT-15 colon and in the test with SR leukemia was over 100 µM each time.
Regarding `CCC12CN(C(=O)OC)C3C(Br)C1CCC(=O)C32` (stereo not drawn), the TGI with MOLT-4 leukemia, in the test with NCI/ADR-RES ovarian, in the test with DU-145 prostate, in the test with SK-OV-3 ovarian, in the test on PC-3 prostate and with OVCAR-8 ovarian was over 100 µM throughout. Besides, the TGI in the test on M14 melanoma, with OVCAR-5 ovarian, in the test on TK-10 renal, in the test with MDA-N, in the test on LOX IMVI melanoma and in the test on SF-295 CNS was over 100 µM throughout. The TGI in the test on HCT-15 colon, in the test on SR leukemia and in the test on HS 578T breast was over 100 µM each time.
Turning to `OCCCN=C1N=C(Cl)/C(=C\c2ccccc2)N1`, the TGI in the test on MOLT-4 leukemia, in the test with NCI/ADR-RES ovarian, in the test on DU-145 prostate, with SK-OV-3 ovarian, with OVCAR-8 ovarian and with M14 melanoma was over 100 µM each time. Also, the TGI with OVCAR-5 ovarian, in the test on TK-10 renal, in the test with HCT-116 colon, in the test with SN12C renal, in the test on MDA-N and with LOX IMVI melanoma was over 100 µM in each case. The TGI in the test on SF-295 CNS, in the test on HCT-15 colon, with SR leukemia and with HS 578T breast was over 100 µM each time.
As to `CN1C(CC(O)c2ccccc2)CCCC1CC(O)(c1ccccc1)c1ccccc1` (stereo not drawn), the TGI with MOLT-4 leukemia was 54.9 µM; in the test with NCI/ADR-RES ovarian it was 33.5 µM; in the test on DU-145 prostate it was 45.6 µM; in the test on SK-OV-3 ovarian it was 38.8 µM; in the test with PC-3 prostate, 34.7 µM; with OVCAR-8 ovarian, 43 µM. The TGI in the test with M14 melanoma turned out to be 34.9 µM; in the test on OVCAR-5 ovarian it was 32.7 µM; with TK-10 renal, 38.8 µM; in the test with HCT-116 colon, 29.1 µM; in the test with SN12C renal, 32.3 µM; in the test with MDA-N it was 33.5 µM. Also, the TGI is 41.5 µM in the test on LOX IMVI melanoma, 30.8 µM in the test with SF-295 CNS, 34.4 µM with HCT-15 colon and 56.6 µM with SR leukemia.
